Results: ChEMBL document CHEMBL3044758, “Weed control in sunn hemp and its ability to suppress weed growth” (Crop Prot, 2011)

Tests used:
Eragrostis cilianensis [1] = experiment: Herbicidal activity against Eragrostis cilianensis (stinkgrass) in sunn hemp assessed as weed control at 0.07 kg/ha post-emergence treatment measured after 2 weeks; format: functional
Crotalaria juncea [2] = experiment: Herbicidal tolerance in Crotalaria juncea (sunn hump) performance assessed as plant hight at 0.07 kg/ha post-emergence treatment measured after 2 weeks; format: ADME, organism-based; conditions: in vivo, other, 336 h
Cyperus esculentus [3] = experiment: Herbicidal activity against Cyperus esculentus (yellow nutsedge) in sunn hemp assessed as weed control at 0.07 kg/ha post-emergence treatment measured after 2 weeks; format: functional
Crotalaria juncea [4] = experiment: Herbicidal tolerance in Crotalaria juncea (sunn hump) performance assessed as injury at 0.07 kg/ha post-emergence treatment measured after 2 weeks; format: ADME, organism-based; conditions: in vivo, other, 336 h
Crotalaria juncea [5] = experiment: Herbicidal tolerance in Crotalaria juncea (sunn hump) performance assessed as stand count at 0.07 kg/ha post-emergence treatment measured after 2 weeks; format: ADME, organism-based; conditions: in vivo, other, 336 h
Digitaria sanguinalis [6] = experiment: Herbicidal activity against Digitaria sanguinalis (hairy crabgrass) in sunn hemp assessed as weed control at 0.07 kg/ha post-emergence treatment measured after 2 weeks; format: functional
Eragrostis cilianensis [7] = experiment: Herbicidal activity against Eragrostis cilianensis (stinkgrass ) in sunn hemp assessed as weed control at 1.12 kg/ha post-emergence treatment measured after 2 weeks; format: functional
Digitaria sanguinalis [8] = experiment: Herbicidal activity against Digitaria sanguinalis (hairy crabgrass) in sunn hemp assessed as weed control at 1.12 kg/ha post-emergence treatment measured after 2 weeks; format: functional
Crotalaria juncea [9] = experiment: Herbicidal tolerance in Crotalaria juncea (sunn hump) performance assessed as injury at 1.12 kg/ha post-emergence treatment measured after 2 weeks; format: ADME, organism-based; conditions: in vivo, other, 336 h
Crotalaria juncea [10] = experiment: Herbicidal tolerance in Crotalaria juncea (sunn hump) performance assessed as stand count at 1.12 kg/ha post-emergence treatment measured after 2 weeks; format: ADME, organism-based; conditions: in vivo, other, 336 h
Crotalaria juncea [11] = experiment: Herbicidal tolerance in Crotalaria juncea (sunn hump) performance assessed as plant hight at 1.12 kg/ha post-emergence treatment measured after 2 weeks; format: ADME, organism-based; conditions: in vivo, other, 336 h
Cyperus esculentus [12] = experiment: Herbicidal activity against Cyperus esculentus (yellow nutsedge) in sunn hemp assessed as weed control at 1.12 kg/ha post-emergence treatment measured after 2 weeks; format: functional

SMILES | Activity (Eragrostis cilianensis [1]) | Activity (Crotalaria juncea [2]) | Activity (Cyperus esculentus [3]) | Activity (Crotalaria juncea [4]) | Activity (Crotalaria juncea [5]) | Activity (Digitaria sanguinalis [6]) | Activity (Eragrostis cilianensis [7]) | Activity (Digitaria sanguinalis [8]) | Activity (Crotalaria juncea [9]) | Activity (Crotalaria juncea [10]) | Activity (Crotalaria juncea [11]) | Activity (Cyperus esculentus [12])
Cc1cnc(C2=NC(=O)C(C)(C(C)C)N2)c(C(=O)O)c1 (configuration not stated) [IMAZAPIC] | 93% | 110 cm | 91% | 9% | 8.18 /m2 | 76% | – | – | – | – | – | –
CCC(CC)Nc1c([N+](=O)[O-])cc(C)c(C)c1[N+](=O)[O-] [PENDIMETHALIN] | – | – | – | – | – | – | 94% | 78% | 7% | 8.18 /m2 | 108 cm | 63%
